Measured values taken from patent publication US20230257354A1, “NOVEL HETEROCYCLIC COMPOUNDS” (Hoffmann-La Roche Inc., priority 2020, published 2023).
Where a name gives a salt, the structure may show the parent alone.

Test system: Acinetobacter baumannii ATCC17978
Test: Antimicrobial susceptibility testing, 90% growth inhibitory concentration (IC90) determination, ATCC17978
Type: cell-based
Conditions: Iso-Sensitest broth, OD 600 nm over 16 h, 35±2° C., read-out: ATCC 17978 IC90
Procedure: Antimicrobial Susceptibility Testing: 90% Growth Inhibitory Concentration (IC90) Determination The in vitro antimicrobial activity of the compounds was determined according to the following procedure: The assay used a 10-points Iso-Sensitest broth medium to measure quantitatively the in vitro activity of the compounds against Acinetobacter baumannii ATCC17978 or ATCC17961. Stock compounds in DMSO were serially twofold diluted (e.g. range from 50 to 0.097 μM final concentration) in 384 wells microtiter plates and inoculated with 49 μl the bacterial suspension in Iso-Sensitest medium to have a final cell concentration of ˜5×10^(5) CFU/ml in a final volume/well of 50 ul/well. Microtiter plates were incubated at 35±2° C. Bacterial cell growth was determined with the measurement of optical density at X=600 nm each 20 minutes over a time course of 16 h. Growth inhibition was calculated during the logarithmic growth of the bacterial cells with determination of the concentration inhibiting 50% (IC50) and 90% (IC90) of the growth. Table 1 provides the 90% growth inhibitory concentrations (IC90) in micromoles per liter of the compounds of present invention obtained against the strain Acinetobacter baumannii ATCC17978.

In the case of `COc1ccc(-c2cnc(C(=O)Nc3ccc(C(=O)NCCNC(=O)[C@H]4C[C@@](C)(O)CN4)c(C)c3)n2C)c(F)c1F` [Example B26, 5-(2,3-difluoro-4-methoxy-phenyl)-N-[4-[2-[[(2R,4R)-4-hydroxy-4-methyl-pyrrolidine-2-carbonyl]amino]ethylcarbamoyl]-3-methyl-phenyl]-1-methyl-imidazole-2-carboxamide;formic acid], the IC90 is reported as 1200 nM.
`CCc1cc(NC(=O)c2ncc(-c3ccc(OCC#N)c(F)c3F)n2C)ccc1C(=O)NCCOCCN` [Example A20, N-[4-[2-(2-aminoethoxy)ethylcarbamoyl]-3-ethyl-phenyl]-5-[4-(cyanomethoxy)-2,3-difluoro-phenyl]-1-methyl-imidazole-2-carboxamide;hydrochloride] gave an IC90 of 960 nM.
`CCc1cc(NC(=O)c2ncc(-c3ccc(OC(C)C)c(F)c3)n2C)ccc1C(=O)NCCOCCN` [Example A15, N-[4-[2-(2-aminoethoxy)ethylcarbamoyl]-3-ethyl-phenyl]-5-(3-fluoro-4-isopropoxy-phenyl)-1-methyl-imidazole-2-carboxamide;hydrochloride] gave an IC90 of 4500 nM.
`CCc1cc(NC(=O)c2ncc(-c3ccc(OC(F)F)c(F)c3F)n2C)ccc1C(=O)NCCCNC(=O)C1CCN(CC2CCNC2)CC1` (stereo not drawn) [Example C2, N-[3-[[4-[[5-[4-(difluoromethoxy)-2,3-difluoro-phenyl]-1-methyl-imidazole-2-carbonyl]amino]-2-ethyl-benzoyl]amino]propyl]-1-(pyrrolidin-3-ylmethyl)piperidine-4-carboxamide;formic acid] was tested, and the IC90 was 370 nM.
`Cn1c(-c2ccc(OC(F)F)c(F)c2F)cnc1C(=O)Nc1ccc(C(=O)NCCC2CN(C(=O)CCN)C2)c(Cl)c1` [Example B10, N-[4-[2-[1-(3-aminopropanoyl)azetidin-3-yl]ethylcarbamoyl]-3-chloro-phenyl]-5-[4-(difluoromethoxy)-2,3-difluoro-phenyl]-1-methyl-imidazole-2-carboxamide;2,2,2-trifluoroacetic acid] gave an IC90 of 140 nM.
`COc1ccc(-c2cnc(C(=O)Nc3ccc(C(=O)NC4CCN(C(=O)C5CCNCC5)CC4)c(Cl)c3)n2C)c(F)c1F` [Example B5, N-[3-chloro-4-[[1-(piperidine-4-carbonyl)-4-piperidyl]carbamoyl]phenyl]-5-(2,3-difluoro-4-methoxy-phenyl)-1-methyl-imidazole-2-carboxamide;formic acid] showed an IC90 of 79 nM.
Work on `COc1ccc(-c2cnc(C(=O)Nc3ccc(C(=O)NC4CCN(C(=O)CCOCCN)C4)c(Cl)c3)n2C)c(F)c1F` (stereo not drawn) [Example B4, N-[4-[[1-[3-(2-aminoethoxy)propanoyl]pyrrolidin-3-yl]carbamoyl]-3-chloro-phenyl]-5-(2,3-difluoro-4-methoxy-phenyl)-1-methyl-imidazole-2-carboxamide;formic acid] yielded an IC90 of 200 nM.
For `Cn1c(-c2ccc(OCC#N)c(F)c2F)cnc1C(=O)Nc1ccc(C(=O)NCCNC(=O)[C@@H]2CCNC[C@H]2O)c(Cl)c1` [Example B34, (3S,4R)-N-[2-[[2-chloro-4-[[5-[4-(cyanomethoxy)-2,3-difluoro-phenyl]-1-methyl-imidazole-2-carbonyl]amino]benzoyl]amino]ethyl]-3-hydroxy-piperidine-4-carboxamide;formic acid], the IC90 was 1700 nM.
Compound `COc1ccc(-c2cnc(C(=O)Nc3ccc(C(=O)NC4CCN(C(=O)[C@@H]5C[C@@H](O)CN5)CC4)c(Cl)c3)n2C)c(F)c1F` [Example B7, N-[3-chloro-4-[[1-[(2S,4R)-4-hydroxypyrrolidine-2-carbonyl]-4-piperidyl]carbamoyl]phenyl]-5-(2,3-difluoro-4-methoxy-phenyl)-1-methyl-imidazole-2-carboxamide] has an IC90 of 82 nM.
`COc1ccc(-c2cnc(C(=O)Nc3ccc(C(=O)N[C@H]4C[C@@H](NC(=O)C5(O)CCNCC5)C4)c(Cl)c3)n2C)c(F)c1F` [Example B40, N-[3-[[2-chloro-4-[[5-(2,3-difluoro-4-methoxy-phenyl)-1-methyl-imidazole-2-carbonyl]amino]benzoyl]amino]cyclobutyl]-4-hydroxy-piperidine-4-carboxamide;formic acid] was tested, and the IC90 was 120 nM.
In the case of `COc1ccc(-c2cnc(C(=O)Nc3ccc(C(=O)NC4CN(C(=O)CN)C4)c(Cl)c3)n2C)c(F)c1F` [Example B17, N-[4-[[1-(2-aminoacetyl)azetidin-3-yl]carbamoyl]-3-chloro-phenyl]-5-(2,3-difluoro-4-methoxy-phenyl)-1-methyl-imidazole-2-carboxamide;formic acid], the IC90 is reported as 84 nM.
`COc1ccc(-c2cnc(C(=O)Nc3ccc(C(=O)NC4CCN(C(=O)CN(C)C)C4)c(Cl)c3)n2C)c(F)c1F` (stereo not drawn) [Example A23, N-[3-Chloro-4-[[1-[2-(dimethylamino)acetyl]pyrrolidin-3-yl]carbamoyl]phenyl]-5-(2,3-difluoro-4-methoxy-phenyl)-1-methyl-imidazole-2-carboxamide] gave an IC90 of 220 nM.
Compound `COc1ccc(-c2cnc(C(=O)Nc3ccc(C(=O)NCC4CN(C(=O)CN)C4)c(Cl)c3)n2C)c(F)c1F` [Example B18, N-[4-[[1-(2-aminoacetyl)azetidin-3-yl]methylcarbamoyl]-3-chloro-phenyl]-5-(2,3-difluoro-4-methoxy-phenyl)-1-methyl-imidazole-2-carboxamide;formic acid] has an IC90 of 240 nM.
`COc1ccc(-c2cnc(C(=O)Nc3ccc(C(=O)N[C@H]4C[C@@H](NC(=O)C5CC(CN)C5)C4)c(Cl)c3)n2C)c(F)c1F` (stereo partly drawn) [Example B9, N-[4-[[3-[[3-(aminomethyl)cyclobutanecarbonyl]amino]cyclobutyl]carbamoyl]-3-chloro-phenyl]-5-(2,3-difluoro-4-methoxy-phenyl)-1-methyl-imidazole-2-carboxamide;formic acid] gave an IC90 of 210 nM.
`COc1ccc(-c2cnc(C(=O)Nc3ccc(C(=O)N[C@H]4C[C@@H](C(=O)N5CC(N)C5)C4)c(Cl)c3)n2C)c(F)c1F` [Example B20, N-[4-[[3-(3-aminoazetidine-1-carbonyl)cyclobutyl]carbamoyl]-3-chloro-phenyl]-5-(2,3-difluoro-4-methoxy-phenyl)-1-methyl-imidazole-2-carboxamide;formic acid] was tested, and the IC90 was 210 nM.
Compound `Cn1c(-c2ccc(OCC#N)c(F)c2F)cnc1C(=O)Nc1ccc(C(=O)NCCN2CCNCC2)c(Cl)c1` [Example A10, N-[3-chloro-4-(2-piperazin-1-ylethylcarbamoyl)phenyl]-5-[4-(cyanomethoxy)-2,3-difluoro-phenyl]-1-methyl-imidazole-2-carboxamide;2,2,2-trifluoroacetic acid] has an IC90 of 360 nM.
With `CCc1cc(NC(=O)c2ncc(-c3ccc(OC(F)F)c(F)c3F)n2C)ccc1C(=O)NCCCNC(=O)C1CCNCC1` [Example B12, N-[3-[[4-[[5-[4-(difluoromethoxy)-2,3-difluoro-phenyl]-1-methyl-imidazole-2-carbonyl]amino]-2-ethyl-benzoyl]amino]propyl]piperidine-4-carboxamide;formic acid] the IC90 was 760 nM.
In the case of `Cn1c(-c2ccc(OCC#N)c(F)c2F)cnc1C(=O)Nc1ccc(C(=O)NCCOCCN)c(Cl)c1` [Example A9, N-[4-[2-(2-aminoethoxy)ethylcarbamoyl]-3-chloro-phenyl]-5-[4-(cyanomethoxy)-2,3-difluoro-phenyl]-1-methyl-imidazole-2-carboxamide;formic acid], the IC90 is reported as 250 nM.
